Experimental findings from the supplement of paper PMC10307832 are described below.

What all share (assay): relative viability (nuclei count vs DMSO), 5 days (fraction); higher = more cells survive
Compound in the experiment “AZD5582 + Phenformin”: C[C@@H](C(=O)N[C@@H](C1CCCCC1)C(=O)N2CCC[C@H]2C(=O)N[C@@H]3[C@@H](CC4=CC=CC=C34)OCC#CC#CCO[C@@H]5CC6=CC=CC=C6[C@@H]5NC(=O)[C@@H]7CCCN7C(=O)[C@H](C8CCCCC8)NC(=O)[C@H](C)NC)NC [AZD5582] + N=C(N)NC(=N)NCCc1ccccc1 [Phenformin] (partner 250 µM)
An outline of the steps:
(§1)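 Each reported value is a median over duplicate plates. It expresses relative viability: treated-well nuclei count divided by vehicle-well nuclei count. Lung cancer cell lines in 1536-well plates were dosed by pin tool a day after seeding, alone with one drug or with a fixed anchor-drug dose plus five library-drug doses (not always all listed) in √10 steps, and nuclei were counted after 5 days.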

Compound in experiment [1]: Cn1nnc2c(C(N)=O)ncn2c1=O [Temozolomide] + CS(=O)(=O)N1CCN(Cc2cc3nc(-c4cccc5[nH]ncc45)nc(N4CCOCC4)c3s2)CC1 [Pictilisib] (partner 1 µM)
An outline of the steps:
as §1

Compound in experiment [2]: Cn1nnc2c(C(N)=O)ncn2c1=O [Temozolomide] + O=C(CCCCCCC(=O)Nc1ccccc1)NO [Vorinostat] (partner 1 µM)
An outline of the steps:
as §1

Compound in experiment [3]: Cn1nnc2c(C(N)=O)ncn2c1=O [Temozolomide] + CC(=O)Nc1cccc(-n2c(=O)n(C3CC3)c(=O)c3c(Nc4ccc(I)cc4F)n(C)c(=O)c(C)c32)c1 [Trametinib] (partner 0.02 µM)
In a few lines: as §1

With NCI-H1975, the relative viability turned out to be 0.416 with AZD5582 + Phenformin (first compound 0.001581 µM); 0.457 with AZD5582 + Phenformin (first compound 0.005 µM); 0.393 with AZD5582 + Phenformin (first compound 0.01581 µM); 0.452 with AZD5582 + Phenformin (first compound 0.05 µM); 0.272 in experiment [1] (first compound 0.2 µM); 0.308 in experiment [1] (first compound 0.6325 µM). Further, the relative viability in experiment [1] (first compound 2 µM) came out at 0.311; in experiment [1] (first compound 6.325 µM), 0.302; in experiment [1] (first compound 20 µM), 0.311; in experiment [2] (first compound 0.2 µM), 0.854; in experiment [2] (first compound 0.6325 µM), 0.76; in experiment [2] (first compound 2 µM), 0.711. Further, the relative viability in experiment [2] (first compound 6.325 µM) turned out to be 0.701; in experiment [2] (first compound 20 µM) it was 0.719; in experiment [3] (first compound 0.2 µM), 0.339; in experiment [3] (first compound 0.6325 µM), 0.31; in experiment [3] (first compound 2 µM), 0.371; in experiment [3] (first compound 6.325 µM) it was 0.373. In addition, in experiment [3] (first compound 20 µM), the relative viability is 0.413.
On to ABC-1, for which the relative viability was found to be 0.239 with AZD5582 + Phenformin (first compound 0.001581 µM); 0.241 with AZD5582 + Phenformin (first compound 0.005 µM); 0.23 with AZD5582 + Phenformin (first compound 0.01581 µM); 0.251 with AZD5582 + Phenformin (first compound 0.05 µM); 0.726 in experiment [1] (first compound 0.2 µM); 0.8 in experiment [1] (first compound 0.6325 µM). Moreover, the relative viability in experiment [1] (first compound 2 µM) amounted to 0.881; in experiment [1] (first compound 6.325 µM), 0.609; in experiment [1] (first compound 20 µM), 0.53; in experiment [2] (first compound 0.2 µM) it was 1.48; in experiment [2] (first compound 0.6325 µM), 0.771; in experiment [2] (first compound 2 µM), 0.907. Moreover, the relative viability turned out to be 1.21 in experiment [2] (first compound 6.325 µM) and 1.08 in experiment [2] (first compound 20 µM).
Regarding NCI-H1563, the relative viability with AZD5582 + Phenformin (first compound 0.001581 µM) amounted to 0.641; in the experiment with AZD5582 + Phenformin (first compound 0.005 µM), 0.665; with AZD5582 + Phenformin (first compound 0.01581 µM), 0.574; with AZD5582 + Phenformin (first compound 0.05 µM), 0.627; in experiment [1] (first compound 0.2 µM), 0.654; in experiment [1] (first compound 0.6325 µM), 0.619. For the same cell line, the relative viability in experiment [1] (first compound 2 µM) worked out at 0.642; in experiment [1] (first compound 6.325 µM), 0.609; in experiment [1] (first compound 20 µM) it was 0.664.
For NCI-H522, the relative viability is 0.635 with AZD5582 + Phenformin (first compound 0.001581 µM); 0.643 in the experiment with AZD5582 + Phenformin (first compound 0.005 µM); 0.649 in the experiment with AZD5582 + Phenformin (first compound 0.01581 µM); 0.65 with AZD5582 + Phenformin (first compound 0.05 µM); 0.762 in experiment [2] (first compound 0.2 µM); 1.02 in experiment [2] (first compound 0.6325 µM). The relative viability in experiment [2] (first compound 2 µM) worked out at 1.02; in experiment [2] (first compound 6.325 µM) it was 0.973; in experiment [2] (first compound 20 µM), 0.92; in experiment [3] (first compound 0.2 µM), 0.654; in experiment [3] (first compound 0.6325 µM), 0.724; in experiment [3] (first compound 2 µM), 0.954. Moreover, the relative viability in experiment [3] (first compound 6.325 µM) worked out at 0.691; in experiment [3] (first compound 20 µM), 0.671.
Consider EBC-1, for which the relative viability in experiment [1] (first compound 0.2 µM) worked out at 0.493; in experiment [1] (first compound 0.6325 µM) it was 0.358; in experiment [1] (first compound 2 µM) it was 0.388; in experiment [1] (first compound 6.325 µM) it was 0.387; in experiment [1] (first compound 20 µM), 0.416.
For NCI-H1648, the relative viability in experiment [2] (first compound 0.6325 µM) was found to be 0.436; in experiment [2] (first compound 2 µM), 0.624; in experiment [2] (first compound 6.325 µM), 0.457; in experiment [2] (first compound 20 µM), 0.375; in experiment [3] (first compound 0.6325 µM) it was 0.477; in experiment [3] (first compound 2 µM), 0.454. For the same cell line, the relative viability in experiment [3] (first compound 6.325 µM) was 0.545; in experiment [3] (first compound 20 µM), 0.307.
Regarding NCI-H1299, the relative viability in experiment [1] (first compound 0.2 µM) is 0.823; in experiment [1] (first compound 0.6325 µM) it was 0.8; in experiment [1] (first compound 2 µM), 0.744; in experiment [1] (first compound 6.325 µM), 0.784; in experiment [1] (first compound 20 µM), 0.847.
Regarding NCI-H1792, the relative viability in the experiment with AZD5582 + Phenformin (first compound 0.005 µM) amounted to 0.323; with AZD5582 + Phenformin (first compound 0.05 µM) it was 1.12; in experiment [1] (first compound 0.2 µM), 0.199; in experiment [1] (first compound 0.6325 µM), 0.304; in experiment [1] (first compound 2 µM) it was 0.241; in experiment [1] (first compound 6.325 µM), 0.314. The relative viability in experiment [1] (first compound 20 µM) turned out to be 0.256; in experiment [3] (first compound 0.2 µM) it was 0.389; in experiment [3] (first compound 0.6325 µM), 0.441; in experiment [3] (first compound 2 µM), 0.471; in experiment [3] (first compound 6.325 µM), 0.317; in experiment [3] (first compound 20 µM) it was 0.517.
Regarding NCI-H1623, the relative viability with AZD5582 + Phenformin (first compound 0.001581 µM) worked out at 0.565; with AZD5582 + Phenformin (first compound 0.005 µM), 0.61; in the experiment with AZD5582 + Phenformin (first compound 0.01581 µM), 0.565; with AZD5582 + Phenformin (first compound 0.05 µM), 0.46.
As for SW 900, the relative viability with AZD5582 + Phenformin (first compound 0.001581 µM) stood at 0.502; with AZD5582 + Phenformin (first compound 0.005 µM), 0.632; in the experiment with AZD5582 + Phenformin (first compound 0.01581 µM), 0.414; with AZD5582 + Phenformin (first compound 0.05 µM), 0.401; in experiment [2] (first compound 0.2 µM) it was 0.741; in experiment [2] (first compound 0.6325 µM), 0.498. In addition, the relative viability in experiment [2] (first compound 2 µM) came to 0.569; in experiment [2] (first compound 6.325 µM), 0.373; in experiment [2] (first compound 20 µM), 0.344; in experiment [3] (first compound 0.2 µM) it was 0.728; in experiment [3] (first compound 0.6325 µM), 0.783; in experiment [3] (first compound 2 µM), 0.966. For the same cell line, the relative viability was determined as 1 in experiment [3] (first compound 6.325 µM) and 0.59 in experiment [3] (first compound 20 µM).
Take A549: the relative viability in the experiment with AZD5582 + Phenformin (first compound 0.001581 µM) was determined as 0.172; with AZD5582 + Phenformin (first compound 0.005 µM), 0.127; in the experiment with AZD5582 + Phenformin (first compound 0.01581 µM) it was 0.152; in the experiment with AZD5582 + Phenformin (first compound 0.05 µM), 0.278; in experiment [1] (first compound 0.2 µM) it was 0.61; in experiment [1] (first compound 0.6325 µM), 0.471. Moreover, the figures for the relative viability in experiment [1] (first compound 2 µM), in experiment [1] (first compound 6.325 µM) and in experiment [1] (first compound 20 µM) were 0.525, 0.507 and 0.504, respectively.
With NCI-H2342, the relative viability with AZD5582 + Phenformin (first compound 0.001581 µM) was determined as 0.551; with AZD5582 + Phenformin (first compound 0.005 µM) it was 0.556; with AZD5582 + Phenformin (first compound 0.01581 µM), 0.528; with AZD5582 + Phenformin (first compound 0.05 µM), 0.634; in experiment [2] (first compound 0.2 µM) it was 0.673; in experiment [2] (first compound 0.6325 µM), 0.833. In addition, the relative viability in experiment [2] (first compound 2 µM) turned out to be 0.9; in experiment [2] (first compound 6.325 µM), 0.742; in experiment [2] (first compound 20 µM), 0.811; in experiment [3] (first compound 0.2 µM) it was 0.638; in experiment [3] (first compound 0.6325 µM), 0.848; in experiment [3] (first compound 2 µM), 0.757. The relative viability in experiment [3] (first compound 6.325 µM) came to 0.799; in experiment [3] (first compound 20 µM), 0.818.
As for Calu-6, the relative viability in experiment [1] (first compound 0.2 µM) came out at 1.21; in experiment [1] (first compound 0.6325 µM) it was 0.939; in experiment [1] (first compound 2 µM), 0.883; in experiment [1] (first compound 6.325 µM), 0.867; in experiment [1] (first compound 20 µM), 0.974.
As to IA-LM, the relative viability in experiment [1] (first compound 0.2 µM) was found to be 0.279; in experiment [1] (first compound 0.6325 µM) it was 0.376; in experiment [1] (first compound 2 µM), 0.385; in experiment [1] (first compound 6.325 µM), 0.266; in experiment [1] (first compound 20 µM), 0.328; in experiment [2] (first compound 0.2 µM) it was 0.842. Also, the relative viability came to 1.05 in experiment [2] (first compound 0.6325 µM), 0.895 in experiment [2] (first compound 2 µM), 0.952 in experiment [2] (first compound 6.325 µM) and 1.03 in experiment [2] (first compound 20 µM).
